Data taken from patent US20200017495A1, “NOVEL HETEROCYCLIC COMPOUNDS AND THEIR USE IN PREVENTING OR TREATING BACTERIAL INFECTIONS” (priority 2017, published 2020).
Where “and” joins values, the source holds several entries; their conditions need not be identical. Identical values can stand only once. Like-named read-outs stand apart in the source and are kept apart here.

What was measured:
[1] = system: Citrobacter murliniae (CMU) isolates; test: MIC of compounds alone and combined with antibacterials, broth microdilution (CLSI); type: cell-based
Summary of the method: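 Genotyped isolates; cpd ± antibacterial, DMSO spots; ca-MHB, 5.10^5 CFU/mL; 35° C, 16-20 h, air; visual MIC; ATB MIC per cpd concentration.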

[2] = system: Klebsiella pneumoniae (KPN) isolates; test: as above; type: cell-based
Summary of the method: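 First, log-phase suspensions are brought to 5.10^5 CFU/mL final in ca-MHB; plates then incubate 16-20 h at 35° C in air. Growth is judged visually, giving the compound MIC alone and the antibacterial MIC at each compound concentration.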

SMILES: CC1(C)S[C@@H]2[C@H](NC(=O)[C@H](N)c3ccc(O)cc3)C(=O)N2[C@H]1C(=O)O [AMX, Amoxicillin]
- MIC ATB in combination [1]: >128 µg/mL
- MIC ([1]; strain CMU 210102, genotype VIM-4): >256 µg/mL
- MIC [2]: >128 µg/mL
- MIC ATB in combination [2]: >128 µg/mL and 128 µg/mL and <128 µg/mL
- MIC ATB in combination ([2]; KPN 6299, AF2 @ 8 μg/mL): 2 µg/mL
- MIC ATB in combination ([2]; KPN 6299, CLA @ 4 μg/mL): >512 µg/mL
- MIC ATB in combination ([2]; KPN 110376, AF2 @ 8 μg/mL): 0.5 µg/mL
- MIC ATB in combination ([2]; KPN 131119, CLA @ 4 μg/mL): >512 µg/mL
- MIC ATB in combination ([2]; KPN 160143, AF2 @ 8 μg/mL): <0.25 µg/mL
- MIC ATB in combination ([2]; KPN 190551, AF2 @ 8 μg/mL): <0.25 µg/mL
- MIC ATB in combination ([2]; KPN 200047, AF2 @ 8 μg/mL): <0.25 µg/mL
- MIC ATB in combination ([2]; KPN 200047, CLA @ 4 μg/mL): 32 µg/mL
- MIC ATB in combination ([2]; KPN 200327, AF2 @ 8 μg/mL): <0.25 µg/mL
- MIC ATB in combination ([2]; KPN 200327, CLA @ 4 μg/mL): 32 µg/mL
- MIC ATB in combination ([2]; KPN 260251, AF2 @ 8 μg/mL): 4 µg/mL
- MIC ATB in combination ([2]; KPN 260376, AF2 @ 8 μg/mL): <0.25 µg/mL
- MIC ATB in combination ([2]; KPN 270077, AF2 @ 8 μg/mL): 32 µg/mL
- MIC ATB in combination ([2]; KPN 270077, CLA @ 4 μg/mL): 32 µg/mL
- MIC ATB in combination ([2]; KPN 700603, AF2 @ 8 μg/mL): 4 µg/mL
- MIC ATB in combination ([2]; KPN 700603, CLA @ 4 μg/mL): 8 µg/mL
- MIC ATB in combination ([2]; KPN ARA, AF2 @ 8 μg/mL): <=0.25 μg/mL
- MIC ATB in combination ([2]; KPN BAA-1898, CLA @ 4 μg/mL): >512 µg/mL
- MIC ATB in combination ([2]; KPN LIB, AF2 @ 8 μg/mL): <=0.25 μg/mL
- MIC ATB in combination ([2]; KPN LIB, CLA @ 4 μg/mL): >512 µg/mL
- MIC ATB in combination ([2]; KPN UFR22_O, AF2 @ 8 μg/mL): 0.5 µg/mL
- MIC ATB in combination ([2]; KPN UFR23, AF2 @ 8 μg/mL): 4 µg/mL
- MIC ATB in combination ([2]; KPN UFR24, AF2 @ 8 μg/mL): 32 µg/mL
- MIC ATB in combination ([2]; KPN UFR25, AF2 @ 8 μg/mL): <0.25 µg/mL
- MIC ATB in combination ([2]; KPN UFR28, AF2 @ 8 μg/mL): <=0.25 μg/mL
- MIC ATB in combination ([2]; KPN UFR33, AF2 @ 8 μg/mL): 8 µg/mL
- MIC ATB in combination ([2]; KPN UFR43, AF2 @ 8 μg/mL): <0.25 µg/mL
- MIC ATB in combination ([2]; KPN UFR53, AF2 @ 8 μg/mL): <0.25 µg/mL
- MIC ATB in combination ([2]; KPN UFR77, AF2 @ 8 μg/mL): <0.25 µg/mL
- MIC ATB in combination ([2]; KPN UFR80, AF2 @ 8 μg/mL): 64 µg/mL
- MIC ATB in combination ([2]; KPN UFR218, CLA @ 4 μg/mL): 32 µg/mL
- MIC ([2]; strain KPN 6299, genotype TEM-1, SHV-11, OXA-163): >1024 µg/mL
- MIC ([2]; strain KPN 110376, genotype TEM-1, SHV-1, CTX-M-15, OXA-1, OXA-48): >256 µg/mL
- MIC ([2]; strain KPN 121206, genotype SHV-1, NDM-1): >256 µg/mL
- MIC ([2]; strain KPN 131119, genotype TEM-1, SHV-11, CTX-M-15, OXA-1, OXA-48): >256 µg/mL
- MIC ([2]; strain KPN 140347, genotype CTX-M-15, NDM-1, antibiotic alone): >128 µg/mL
- MIC ([2]; strain KPN 140513, genotype TEM-1, SHV-11, CTX-M-15, KPC-3): >256 µg/mL
- MIC ([2]; strain KPN 160143, genotype TEM-1, SHV-1, CTX-M-15, KPC-2, OXA-1): >256 µg/mL
- MIC ([2]; strain KPN 190128, genotype TEM-1, SHV-32, CTX-M-15, OXA-1): >256 µg/mL
- MIC ([2]; strain KPN 190270, genotype TEM-1, SHV-76, CTX-M-15, OXA-1): >256 µg/mL
- MIC ([2]; strain KPN 190425, genotype TEM-1, SHV-1, CTX-M-15, OXA-1): >256 µg/mL
- MIC ([2]; strain KPN 190551, genotype TEM-1, SHV-1, CTX-M-15, OXA-1): >256 µg/mL
- MIC ([2]; strain KPN 200047, genotype TEM-1, SHV-32, CTX-M-15, OXA-1): >256 µg/mL
- MIC ([2]; strain KPN 200327, genotype TEM-1, SHV-1, CTX-M-15, OXA-1): >256 µg/mL
- MIC ([2]; strain KPN 260251, genotype TEM-1, SHV-11, SHV-12, CTX-M-15, KPC-2): >256 µg/mL
- MIC ([2]; strain KPN 260252, genotype TEM-1, SHV-11, KPC-3): >256 µg/mL
- MIC ([2]; strain KPN 260376, genotype SHV-1, SHV-49, OXA-1): >256 µg/mL
- MIC ([2]; strain KPN 270077, genotype TEM-1, SHV-1, CTX-M-15): >256 µg/mL
- MIC ([2]; strain KPN 700603, genotype SHV-18, OXA-2): >256 µg/mL
- MIC ([2]; strain KPN ARA, genotype TEM-1, SHV-11, CTX-M-15, OXA-1, OXA-48): >256 µg/mL
- MIC ([2]; strain KPN BAA-1898, genotype TEM-1, SHV-11, SHV-12, KPC-2): >1024 µg/mL
- MIC ([2]; strain KPN LIB, genotype SHV-11, OXA-48): >256 µg/mL
- MIC ([2]; strain KPN UFR22_O, genotype TEM-1, SHV-1, OXA-48): >256 µg/mL
- MIC ([2]; strain KPN UFR23, genotype TEM-1, SHV-1, OXA-48): >256 µg/mL
- MIC ([2]; strain KPN UFR24, genotype TEM-1, SHV-2, SHV-11, OXA-1, OXA-48, OXA-47): >256 µg/mL
- MIC ([2]; strain KPN UFR25, genotype TEM-1, SHV-11, CTX-M-15, OXA-162): >256 µg/mL
- MIC ([2]; strain KPN UFR27, genotype TEM-1, SHV-28, CTX-M-15, OXA-204): >256 µg/mL
- MIC ([2]; strain KPN UFR28, genotype TEM-1, SHV-1, CTX-M-15, OXA-1, OXA-232): >256 µg/mL
- MIC ([2]; strain KPN UFR33, genotype TEM-2, SHV-12, CTX-M-15, OXA-1, OXA-10): >256 µg/mL
- MIC ([2]; strain KPN UFR42, genotype SHV-2, CTX-M-15 OXA-1, OXA-181, NDM-1): >256 µg/mL
- MIC ([2]; strain KPN UFR43, genotype SHV-11, CTX-M-15, CMY-2, OXA-1, NDM-1): >256 µg/mL
- MIC ([2]; strain KPN UFR46, genotype TEM-1, SHV-12, CTX-M-15, OXA-9, VIM-1): >256 µg/mL
- MIC ([2]; strain KPN UFR53, genotype TEM-1, IMP-1): >256 µg/mL
- MIC ([2]; strain KPN UFR65, genotype TEM-1, SHV-11, KPC-2): >256 µg/mL
- MIC ([2]; strain KPN UFR66, genotype TEM-1, SHV-11, CTX-M-15, KPC-2): >256 µg/mL
- MIC ([2]; strain KPN UFR67, genotype TEM-1, SHV-11, KPC-3): >256 µg/mL
- MIC ([2]; strain KPN UFR68, genotype TEM-1, SHV-11, CTX-M-15, KPC-3): >1024 µg/mL
- MIC ([2]; strain KPN UFR76, genotype TEM-155, SHV-11, ACT-1, OXA-2): >256 µg/mL
- MIC ([2]; strain KPN UFR77, genotype CMY-2): >256 µg/mL
- MIC ([2]; strain KPN UFR78, genotype TEM-1, SHV-1, CTX-M-15, CMY-2, OXA-1, OXA-48): >256 µg/mL
- MIC ([2]; strain KPN UFR79, genotype DHA-1, OXA-1): >256 µg/mL
- MIC ([2]; strain KPN UFR80, genotype SHV-11, DHA-1, OXA-1): >256 µg/mL
- MIC ([2]; strain KPN UFR81, genotype TEM-1, SHV-1, DHA-1, OXA-48): >256 µg/mL
- MIC ([2]; strain KPN UFR162, genotype SHV-28, TEM-1, CTX-M-15, OXA-181, OXA-181, NDM-1, antibiotic alone): >128 µg/mL
- MIC ([2]; strain KPN UFR163, genotype TEM-1, SHV-1, CTX-M-15, OXA-232, OXA-9, NDM-1, qnrB1, qepA, RmtB, antibiotic alone): >128 µg/mL
- MIC ([2]; strain KPN UFR164, genotype SHV-11, CTX-M-15, OXA-1, OXA-181, NDM-1, antibiotic alone): >128 µg/mL
- MIC ([2]; strain KPN UFR165, genotype TEM-1, SHV-11, CTX-M-15, OXA-1, OXA-181, NDM-1, antibiotic alone): >128 µg/mL
- MIC ([2]; strain KPN UFR166, genotype TEM-1, TEM-1, CTX-M-15, OXA-181, OXA-9, NDM-1, antibiotic alone): >128 µg/mL
- MIC ([2]; strain KPN UFR167, genotype TEM-1, SHV-12, CTX-M-15, OXA-9, NDM-1, antibiotic alone): >128 µg/mL
- MIC ([2]; strain KPN UFR168, genotype SHV-2, CTX-M-15, OXA-1, OXA-181, NDM-1, ArmA, antibiotic alone): >128 µg/mL
- MIC ([2]; strain KPN UFR169, genotype TEM-1, SHV-28, CTX-M-15, CMY-4, OXA-1, NDM-1, antibiotic alone): >128 µg/mL
- MIC ([2]; strain KPN UFR170, genotype TEM-1, SHV-28, CTX-M-15, CMY-6, OXA-1, OXA-9, NDM-1, antibiotic alone): >128 µg/mL
- MIC ([2]; strain KPN UFR171, genotype TEM-1, SHV-28, CTX-M-15, OXA-1, OXA-10, NDM-1, RmtA, antibiotic alone): >128 µg/mL
- MIC ([2]; strain KPN UFR172, genotype SHV-38, CMY-16, OXA-10, NDM-1, antibiotic alone): >128 µg/mL
- MIC ([2]; strain KPN UFR215, genotype SHV-27, CTX-M-15): >128 µg/mL
- MIC ([2]; strain KPN UFR216, genotype SHV-28, CTX-M-15): >128 µg/mL
- MIC ([2]; strain KPN UFR217, genotype TEM-1, SHV-1, CTX-M-15): >128 µg/mL
- MIC ([2]; strain KPN UFR219, genotype SHV-12, CTX-M-15): >128 µg/mL
- MIC ([2]; strain KPN UFR220, genotype TEM-1, SHV-12, DHA-1): >128 µg/mL
- MIC ([2]; strain KPN UFR221, genotype TEM-1, SHV-11, CTX-M-14, DHA-1): >128 µg/mL
- MIC ([2]; strain KPN UFR229O, genotype SHV-12, VIM-1, antibiotic alone): >128 µg/mL
